Here are results for two compounds from article PMC8919051, “Metabolome and Whole-Transcriptome Analyses Reveal the Molecular Mechanisms Underlying Hypoglycemic Nutrient Metabolites Biosynthesis in Cyclocarya paliurus Leaves During Different Harvest Stages” (Frontiers in Nutrition, 2022).

The target in the assay is α-amylase (EC 3.2.1.1). Description: α-amylase activity kit, colorimetric at […] nm. It counts as biochemical.

pIC50: −log10 of the molar value.

In the case of `O=C(/C=C/c1ccc(O)c(O)c1)O[C@@H]1C[C@@](O)(C(=O)O)C[C@@H](O)[C@@H]1O` [neochlorogenic acid], the pIC50 is 3.64. Next, `COc1cc(C(=O)O)ccc1O` [vanillic acid]: 3.48.

The term pIC50 denotes the negative decadic logarithm of the IC50, by convention in mol/L. A low value points to a large IC50.
